The target in data set [1] is Muscarinic acetylcholine receptor. Put plainly: Inhibition of muscarinic receptor. It is filed as protein assay, Homo sapiens.
Data set [2] in a line: Inhibition of histaminergic receptor.
Data set [3] in a line: Inhibition of adrenergic receptor. Also noted: species or system Homo sapiens.
A short description of data set [4]: Oral bioavailability in rat. It is filed as ADME, organism-based. As to conditions: in vivo.
Data set [5] concerns the target Voltage-gated inwardly rectifying potassium channel KCNH2 (Homo sapiens, UniProt Q12809). Briefly: Inhibition of hERG receptor. The class given is toxicity. On the technique in general: The hERG channel carries a current that helps repolarise heart muscle cells.
A short description of data set [6]: Inhibition of dopaminergic receptor. Set-up: species or system Homo sapiens.
The nature of data set [7]: Clearance in rat. The class given is ADME, organism-based. The settings on record: in vivo.
For data set [8], the target named is Growth hormone secretagogue receptor type 1 (Homo sapiens, UniProt Q92847). Briefly: Binding affinity to GHSR.
Chain of Growth hormone secretagogue receptor type 1 (Q92847 whole entry): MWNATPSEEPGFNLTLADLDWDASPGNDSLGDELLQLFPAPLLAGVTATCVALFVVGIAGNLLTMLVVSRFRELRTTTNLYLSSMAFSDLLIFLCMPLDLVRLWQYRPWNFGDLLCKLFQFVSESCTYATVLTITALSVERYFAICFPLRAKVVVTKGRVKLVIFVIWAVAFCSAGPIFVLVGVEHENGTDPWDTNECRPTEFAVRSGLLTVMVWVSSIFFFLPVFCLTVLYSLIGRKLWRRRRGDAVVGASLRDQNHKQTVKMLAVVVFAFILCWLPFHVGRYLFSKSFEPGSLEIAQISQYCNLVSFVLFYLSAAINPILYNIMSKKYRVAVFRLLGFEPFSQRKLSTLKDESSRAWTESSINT

6 molecules from ChEMBL document CHEMBL1149290, “Discovery of tetralin carboxamide growth hormone secretagogue receptor antagonists via scaffold manipulation” (J Med Chem, 2004) can be followed below.

Some results are limits rather than exact numbers.

In general, IC50 refers to the midpoint of a concentration-inhibition curve. A lower IC50 goes with inhibition by little substance. One may read the bioavailability as the share of a dose that reaches the circulation, judged against a reference dose that is usually intravenous. Read a high bioavailability as much systemic uptake. What is called clearance is the rate of elimination divided by the concentration. Low values mean a low capacity for elimination, high ones a high capacity for elimination.

Chain of Voltage-gated inwardly rectifying potassium channel KCNH2 (Q12809 whole entry): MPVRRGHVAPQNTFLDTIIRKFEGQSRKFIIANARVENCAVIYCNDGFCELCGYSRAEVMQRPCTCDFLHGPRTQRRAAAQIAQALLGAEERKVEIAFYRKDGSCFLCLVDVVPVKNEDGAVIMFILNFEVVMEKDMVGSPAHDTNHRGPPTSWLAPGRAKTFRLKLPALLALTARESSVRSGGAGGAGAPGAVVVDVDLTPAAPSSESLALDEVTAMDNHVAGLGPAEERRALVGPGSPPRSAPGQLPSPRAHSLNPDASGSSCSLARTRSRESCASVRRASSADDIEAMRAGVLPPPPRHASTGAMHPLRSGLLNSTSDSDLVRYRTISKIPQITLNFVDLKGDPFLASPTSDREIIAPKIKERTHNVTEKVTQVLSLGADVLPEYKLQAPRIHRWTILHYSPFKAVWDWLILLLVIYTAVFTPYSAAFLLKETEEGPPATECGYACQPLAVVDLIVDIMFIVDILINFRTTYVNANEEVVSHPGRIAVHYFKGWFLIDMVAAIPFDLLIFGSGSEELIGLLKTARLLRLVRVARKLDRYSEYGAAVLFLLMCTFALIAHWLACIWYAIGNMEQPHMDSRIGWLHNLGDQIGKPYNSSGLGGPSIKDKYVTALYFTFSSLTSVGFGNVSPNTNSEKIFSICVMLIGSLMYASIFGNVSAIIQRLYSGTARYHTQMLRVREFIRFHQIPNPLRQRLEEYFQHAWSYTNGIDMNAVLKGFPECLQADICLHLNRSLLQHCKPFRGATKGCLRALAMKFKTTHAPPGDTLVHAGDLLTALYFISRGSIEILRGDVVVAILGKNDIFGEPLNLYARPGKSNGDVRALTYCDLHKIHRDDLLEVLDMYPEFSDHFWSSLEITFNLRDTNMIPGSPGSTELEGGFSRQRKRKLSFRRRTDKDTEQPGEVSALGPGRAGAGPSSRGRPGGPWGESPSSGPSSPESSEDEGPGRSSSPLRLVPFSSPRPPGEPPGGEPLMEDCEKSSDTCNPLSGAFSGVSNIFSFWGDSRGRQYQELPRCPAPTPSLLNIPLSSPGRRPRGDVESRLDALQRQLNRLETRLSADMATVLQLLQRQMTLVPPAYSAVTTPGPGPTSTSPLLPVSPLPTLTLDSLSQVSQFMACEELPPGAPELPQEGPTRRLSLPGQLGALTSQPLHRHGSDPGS

For `CCN(CC)c1ccc(NC(=O)C2(N(C)C(=O)OCC(C)C)CCc3cccc(OC)c3C2)cc1` (racemic), the IC50 is greater than 33 µM in data set [1]; greater than 33 µM in data set [2]; greater than 33 µM in data set [3]; 6.1 µM in data set [5]; greater than 33 µM in data set [6]. The same molecule showed a bioavailability in data set [4] of 19%. This molecule also had a clearance in data set [7] of 21.7 mL/min/kg.

Take `CCN(CC)c1ccc(NC(=O)C2CCc3ccccc3C2)cc1` (racemic): the IC50 in data set [8] was 2.7 µM (antagonist).

For `CCN(CC)c1ccc(NC(=O)c2c(-c3c(Cl)cccc3Cl)noc2C)cc1`, the clearance in data set [7] is 61.7 mL/min/kg.

With `CCN(CC)c1ccc(NC(=O)C2(NC(=O)OCC(C)C)CCc3ccccc3C2)cc1` (racemic), in data set [8], the IC50 was 0.011 µM (antagonist).

In data set [4], `CCN(CC)c1ccc(NC(=O)C2(NC(=O)OCC(C)C)CCc3cccc(Cl)c3C2)cc1` (racemic) returned a bioavailability of 3.8%. In addition, in data set [8], the IC50 was 0.002 µM (antagonist).

`CCN(CC)c1ccc(NC(=O)C2(NC(=O)OC(C)(C)C)CCc3ccccc3C2)cc1` (racemic): in data set [8], the IC50 was 0.12 µM (antagonist).
